From patent publication US20240156972A1 (priority 2021, published 2024) come the findings set out here.

Numbered stars: 1 amine (or outer) side, 2 acyl side, 3 side chain; on linkers, the order of the positions; unused ones are H or OH. Square brackets hold non-standard residues; d marks the D form. Peptide text beside a SMILES is read from it. X1 = O=C(C(Cc1cccc(S(=O)(=O)F)c1)N[*:1])[*:2]; Lys(N3) = [N-]=[N+]=NCCCC[C@H](N)C(=O)O; X2 = N=C(N)CCCC[C@H](N[*:1])C(=O)[*:2]; Y‑OSO2F = fluorosulfate Tyr; N3‑K = azido-Lys

Data set [1] in a line: Stability of covalent antibody-binding peptides in 1×PBS by LC-HRMS. Particulars: 500 μM, room temperature. It is filed as physicochemical. The procedure:
Liquid chromatography-high resolution mass spectrometry (LC-HRMS) data was obtained on a BRUKER MicroTOF II mass spectrometer. Samples were dissolved in 1×PBS at 500 μM concentrations and were monitored for stability at room temperature over indicated periods of time. Specific m/z −20 amu (loss of H^+ and F^−) and m/z −2 amu (F/OH exchange) masses were monitored to probe off-pathway cyclization and hydrolysis reactions, respectively.
To evaluate the stability of peptide 5 (gDR(F10FSY)), the peptide (500 μM) was incubated in 1×PBS at room temperature and analyzed by LC-HRMS at 0, 24, 48 and 72 hours (FIG. 83). […] Hydrolyzed peptide appeared to elute just before intact peptide after 3 days of incubation.
To evaluate the stability of peptide 7 (ASF-gDR), the peptide (500 μM) was incubated in 1×PBS at room temperature and analyzed by LC-HRMS at 0, 24, 48 and 72 hours.

In data set [2] the test system is PSMA-expressing human embryonic kidney (HEK) cells. Description: ARM 1.2-mediated ADCP by U937 human monocytes, 2-color flow cytometry. It is filed as cell-based. The procedure: ADCP of PSMA-expressing human cells by human monocytes was assessed in the presence of ARM 1.2 and anti-gD1 mouse IgG2a antibody (FIG. 12). ADCP was determined by 2-color flow cytometry assays, where target cell phagocytosis was measured by double positive cell events consisting of FL-1 dye-labeled U937 human monocytes and FL-4 dye-labeled engineered human embryonic kidney (HEK) cells expressing PSMA.
Robust ADCP was only observed when cell surface PSMA and anti-HSV antibody are both present (HEK+_EXP).
(In flow cytometry, cells or beads pass a laser one at a time.)

Data set [3] can be described thus: Stability of aryl sulfonyl fluoride group in PBS by 19F NMR. Conditions: PBS (90% PBS), 10% D2O, room temperature, F− appearance, read-out: half-life of sulfonyl fluoride hydrolysis (converted). The format is physicochemical. The procedure:
A 700 MHz NMR was used to measure ^19F NMR spectra. Bruker TopSpin 4.0.9 was used to process and analyze spectra. GraphPad Prism 8 software was used to visualize and perform non-linear regression of acquired data.
Peptide 7 (ASF-gDR) was used to investigate the stability of the meta-aryl sulfonyl fluoride (ASF) group in 1×PBS at room temperature. The sample was prepared at a 0.5 mM concentration in 90% PBS, 10% D2O. A 700 MHz NMR was used to monitor sulfonyl fluoride disappearance and fluoride (F^− (aq)) appearance overtime, relative to a TFA internal standard. To quantify fluoride loss and gain, peaks were positively phased and integrated relative to the TFA internal standard, which was held constant at three fluoride atoms. A plot of fluoride leaving group appearance over time was fitted with the first order decay equation.
Half-life was calculated from a plot of integrated F^− over time using Equation 1.

For “Ac-(N3-K)-LRMADPNR-(Y-OSO2F)-RGRDL ({Ac-N3‑K}-LRMADPNR-{Y‑OSO2F-Arg-Gly-Arg-Asp-Leu-NH2}) [Peptide 5]”, the “stability by LC-HRMS” value in data set [1] (0-72 hours) is listed as “stable compound”.
For the compound `CSCC[C@H](NC(=O)[C@@H](C)NC(=O)[C@@H](CC(=O)O)NC(=O)[C@H]1CCCN1C(=O)[C@@H](CC(N)=O)NC(=O)[C@H](CCCNC(=N)N)NC(=O)[C@@H](Cc1ccccc1)NC(=O)[C@H](CCCNC(=N)N)NC(=O)CNC(=O)[C@H](CCCCN)NC(=O)[C@@H](CC(=O)O)NC(=O)[C@H](CC(C)C)NC(=O)[C@H](CCCCn1cc(COCCOCCOCCOCCOCCOCCOCCOCCNC(=O)NCCCC[C@H](NC(=O)N[C@@H](CCC(=O)O)C(=O)O)C(=O)O)nn1)NC(C)=O)C(=O)N[C@H](CCCCN)C(=O)N[C@@H](CC(C)C)C(N)=O` [ARM 1.2, GUL-PEG8-HSVqD1], in data set [2] (HEK+_EXP: cell surface PSMA and anti-HSV antibody both present), the ADCP entry is reported as “Robust ADCP”. Further, the “ADCP in control samples” value in data set [2] (isotype IgG, no antibody, free competitor, or HEK cells without PSMA) is “complete lack of ADCP”.
As for `CSCC[C@H](NC(=O)[C@H](CCCCC(=N)N)NC(=O)[C@H](CC(C)C)NC(=O)[C@H](CCCCN=[N+]=[N-])NC(=O)C(Cc1cccc(S(=O)(=O)F)c1)NC(C)=O)C(=O)N[C@@H](C)C(=O)N[C@@H](CC(=O)O)C(=O)N1CCC[C@H]1C(=O)N[C@@H](CC(N)=O)C(=O)N[C@@H](CCCNC(=N)N)C(=O)N[C@@H](Cc1ccccc1)C(=O)N[C@@H](CCCNC(=N)N)C(=O)NCC(=O)N[C@@H](CCCNC(=N)N)C(=O)N[C@@H](CC(=O)O)C(=O)N[C@@H](CC(C)C)C(N)=O` (some centres unmarked) [Peptide 7] (Ac-[X1][Lys(N3)]L[X2]MADPNRFRGRDL-NH2), the half-life (usually how long it takes for the measured level to halve) at 0.5 mM in data set [3] is 8.71 h. This compound showed a SuFEx hydrolysis in data set [1] (after 24 hours) of about 50%.
